Experimental data: US8357634B2, “N-alkoxycarboxamides and their use as microbiocides” (Syngenta Crop Protection LLC, priority 2009, dated 2013)

Legend:
[1] = tested on: Erysiphe graminis f. sp. tritici; assay: Example B-5: Action against Erysiphe graminis f. sp. tritici (wheat powdery mildew), wheat leaf segments; assay type: in vivo; conditions: Blumeria graminis, foliar, 168 h, 0.02% active ingredient, 7 days after inoculation, read-out: preventive fungicidal activity (inhibition)
Procedure: Action Against Erysiphe graminis f. sp. tritici (Wheat Powdery Mildew) Wheat leaf segments were placed on agar in multiwell plates (24-well format) and sprayed with test solutions (0.02% active ingredient). After drying, the leaf disks were inoculated with a spore suspension of the fungus. After appropriate incubation the activity of a compound was assessed 7 days after inoculation as preventive fungicidal activity.

[2] = tested on: Blumeria graminis f. sp. tritici (Erysiphe graminis f. sp. tritici); assay: Example B-9: Blumeria graminis f. sp. tritici / wheat / leaf disc preventive (comparative); assay type: in vivo; conditions: 4 dpi
Procedure: Blumeria graminis f. sp. tritici (Erysiphe graminis f. sp. tritici)/Wheat/Leaf Disc Preventive (Powdery mildew on wheat) Wheat leaf segments were placed on agar in a multiwell plate (24-well format) and sprayed with test solutions. After drying, the leaf disks were inoculated with a spore suspension of the fungus. After appropriate incubation the activity of a compound was assessed 4 dpi (days after inoculation) as preventive fungicidal activity.

[3] = tested on: Botryotinia fuckeliana (Botrytis cinerea); assay: Example B-14: Botryotinia fuckeliana (Botrytis cinerea) / liquid culture (comparative); assay type: cell-based; conditions: 24° C., photometric after 3-4 days, read-out: inhibition of growth
Procedure: Botryotinia fuckeliana (Botrytis cinerea)/Liquid Culture (Gray Mould) Conidia of the fungus from cryogenic storage were directly mixed into nutrient broth. After placing a (DMSO) solution of the test compounds into a microtiter plate (96-well format) the nutrient broth containing the fungal spores was added. The test plates were incubated at 24° C. and the inhibition of growth is determined photometrically after 3-4 days.

[4] = tested on: Puccinia recondita; assay: Example B-10: Puccinia recondita / wheat / leaf disc preventative (comparative); assay type: in vivo; conditions: 8 dpi
Procedure: Puccinia recondita/Wheat/Leaf Disc Preventative (Brown Rust) Wheat leaf segments were placed on agar in multiwell plates (24-well format) and sprayed with test solutions. After drying, the leaf disks were inoculated with a spore suspension of the fungus. After appropriate incubation the activity of a compound was assessed 8 dpi (days after inoculation) as preventive fungicidal activity.

[5] = tested on: Phaeosphaeria nodorum (Septoria nodorum); assay: Example B-11: Phaeosphaeria nodorum / wheat / leaf disc preventative (comparative); assay type: in vivo; conditions: 4 dpi
Procedure: Phaeosphaeria nodorum (Septoria nodorum)/Wheat/Leaf Disc Preventative (Glume Blotch) Wheat leaf segments were placed on agar in a multiwell plate (24-well format) and sprayed with test solutions. After drying, the leaf disks were inoculated with a spore suspension of the fungus. After appropriate incubation the activity of a compound was assessed 4 dpi (days after inoculation) as preventive fungicidal activity.

CON(C(=O)c1cn(C)nc1C(F)F)C(C)c1ccc(Cl)cc1Cl (stereo not shown) [Compound 1.023]
inhibition at 0.02 % strength [1]: ≥ 80%
preventive fungicidal activity ([2]; 20 ppm): 90
preventive fungicidal activity ([2]; 60 ppm): 100
preventive fungicidal activity ([2]; 200 ppm): 100
inhibition at 20 ppm ([3]; 20 ppm): 20%
inhibition at 60 ppm ([3]; 60 ppm): 100%
inhibition at 200 ppm ([3]; 200 ppm): 100%
preventive fungicidal activity ([4]; 20 ppm): 0
preventive fungicidal activity ([4]; 60 ppm): 50
preventive fungicidal activity ([4]; 200 ppm): 70
preventive fungicidal activity ([5]; 20 ppm): 70
preventive fungicidal activity ([5]; 60 ppm): 90
preventive fungicidal activity ([5]; 200 ppm): 90
